# Measured values as given in patent US20100255020A1, “METHOD FOR INDUCING CYTOTOXIC T-CELLS, CYTOTOXIC T-CELL INDUCERS, AND PHARMACEUTICAL COMPOSITIONS AND VACCINES EMPLOYING THEM” (NEC CORPORATION, priority 2007, published 2010).
# Where “and” joins values, the source holds several entries; their conditions need not be identical. Identical values can stand only once. Where no end group is shown, it is not given here.
# How the values were obtained:
# malignant tumors = assay: Peptide immunotherapy of patients, tumor response by RECIST criteria (CT/MRI); type: in vivo, human; parameters: key to RECIST, single lung metastasis / RECIST, total sum of longest diameters of 10 metastatic target lesions / RECIST, pubic bone metastatic tumor / RECIST determination 3 months after starting W10 peptide therapy: CR: all target lesions have disappeared; PR: the sum of the longest diameters of the target lesions decreases by at least 30%; PD: the sum of the longest diameters of the target lesions increases by at least 20%; SD: the change of tumr size is between PR or PD
# Experimental: Among 18 patients, 3 people are illustrated in the style of case reports. […] The mixture was prepared immediately prior to administration. When W10 peptide was administered without petussis vaccine in the safety test, W10 peptide solution was divided into 4 equal portions and injected intradermally at 4 locations in the same manner. A method to measure the diameter of a tumor and a method to analyze peptide-specific T-cells using an HLA-A24 tetramer by flow cytometry are described below.
# The international RECIST criteria referred to here is an evaluation standard described in Theresse, P. et al., J Natl Cancer Inst. 2000, 92, 205-216. When there is confirmation by helical CT or MRI that all target lesions have disappeared this is defined as CR (complete response), when the sum of the longest diameters of the target lesions decreases by at least 30% this is defined as PR (partial response), when the sum of the longest diameters of the target lesions increases by at least 20% this is defined as PD (progressive disease), and when the change of tumr size is between PR or PD this is defined as SD (stable disease). However, regardless of the presence or absence of a change in the target lesions, when even one new lesion appears this is defined as PD.
# Based on the above-mentioned international RECIST criteria, which is used for evaluation of anticancer drugs, all measurable tumors were selected as target tumors, and change in the SLD of the tumors over the course of the therapy was monitored. In addition, number of all the tumors was counted, regardless of the size of a tumor, every time diagnostic imaging was carried out in order to lookout for new lesions. Diagnostic imaging was carried out in principle once a month by helical CT or MRI. If even one new metastasis appeared, regardless of the change in the primary lesion, it was judged as PD.
# Clinical responses were evaluated according to the aforementioned international RECIST criteria for 18 patients who had been treated by immunotherapy using W10+Wc for at least 3 months and one week. Eight cased out of 18 patients were judged as SD, 10 cased were PD. […] In reports on peptide immunotherapy so far, the tumor control rate was limited to a few % up to ten or so % worldwide (Reference Documents 1 to 4). Compared with these already reported cases, this is a good reaction.
# [1] = tested on: prostate-specific antigen (PSA); assay: Prostate tumor marker PSA during W10 peptide immunotherapy; type: in vivo, human
# Experimental: After the gradual increase the dose was fixed to 3 mg of W10 peptide+Wc and immunotherapy was continued. […] The day when 1 mg of W10 peptide on its own was first administered was presented as day 0. Arrows with dotted line indicates the period when 3 mg of W10 without Wc was injected for safety test (W10). The period where Wc was further added to W10 is also indicated with arrows with solid line (W10+Wc). […] Therefore, osteolytic lesions were measured as the size of tumors. […] Around May 2008, PSA gradually started to increase again, and pain started in the right femur. From the end of July 2008, a taxotere+Predonin therapy was started. W10+Wc immunotherapy was continued along with chemotherapy.
# Immunotherapy was started with 3 mg W10 peptide while monitoring safety, then dose escalation was put forward with W10 peptide 1 mg+Wc, followed by 3 mg of W10 peptide+Wc. Eventually, the dose was fixed at this level and weekly immunization was continued. […] The day the immunization was started with 3 mg of W10 without Wc was set as day 0. […] For about half a year, PSA was stable at less than 0.1 (FIG. 14 a). […] When the immunotherapy was resumed, PSA decreased. After this incident, PSA started to show gradual increase. […] The size of a pubic bone metastatic tumor has been maintained within SD for 37 weeks on the RECIST standard so far (FIG. 14 b). […]
# HLA-A*0206 molecule = biological target: T1, HLA-A*0206 molecule (Homo sapiens, UniProt P04439, D140Y/D185E/D98H/E176V/E277Q/F33Y/G131W/G231S/I119V/I121R/I166T/I218V/L300P/L318F/N151K/N90K/P208A/P217A/Q86G/Q94H/R138H/R169H/T345S); assay: Peptide binding to HLA-A*0206 molecule on RA2.6 cells (flow cytometry, Kd); settings: HLA-A*0206, RA2.6 cells; read-out: Binding assay data (−log Kd) (converted)
# T1 construct: expressed in transfected cells; host or cells: RA2.6 (mouse TAP-deficient RMAS cells transfected with pMKITneo bearing HLA-A*0206 cDNA)
# Experimental: The ability of a peptide to bind to an HLA-A*0206 molecule, which is a product of the HLA-A*0206 gene, was measured using RA2.6 cells (cell line newly generated in Kochi University), wherein cDNA of the HLA-A*0206 gene is introduced into RMAS, which is a mouse TAP (transporter associated with antigen processing)-deficient cell line.
# RA2.6 cells were first cultured overnight at 26° C., during this incubation HLA-A*0206 molecules devoid of bound peptide accumulated. Serial dilutions of peptide were added to these cells and peptide binding was carried out at room temperature for 30 minutes.
# Subsequently, culture was carried out at 37° C. for 3.5 hours, during this incubation empty HLA-A*0206 molecules to which no peptide was bound were denatured, and the tertiary structure was lost.
# The cells were stained by adding thereto fluorescently-labeled monoclonal antibody BB7.2, which specifically recognizes the peptide-bound HLA-A*0206 molecule, and incubating on ice for 20 minutes.
# Subsequently, the amount of fluorescence per cell was measured using a flow cytometer, and a dissociation constant Kd value was calculated by a method published in the literature (Udaka et al., Immunogenetics, 51, 816-828, 2000).
sequence,measurement,setting,value
ALLPAVPSL [W10],Duration of tumor control (weeks),"malignant tumors; one line per patient case, W10+Wc immunotherapy, weekly intradermal, listed as W10 peptide",37 weeks and 30 weeks and 32 weeks and 10 weeks and 4 weeks and 0 weeks (6×) and 6 weeks and 17 weeks and 19 weeks and 12 weeks and 33 weeks and 38 weeks
same,RECIST determination 3 months after starting W10 peptide therapy,"malignant tumors; one line per patient case, W10+Wc immunotherapy, listed as W10 peptide",SD (7×) and SD > PD and PD (the sum of the longest diameters of the target lesions increases by at least 20%) (10×)
same,"RECIST, pubic bone metastatic tumor","malignant tumors; patient KB07-003, maintained for 37 weeks",SD
same,New metastatic tumors,"malignant tumors; patient KB07-003, since W10 therapy started",no new metastatic tumors have been found
same,Growth of metastatic tumor in the bone (SLD),"malignant tumors; patient KB07-005, right femur",almost stopped
same,New distant metastasis,"malignant tumors; patient KB07-005, throughout the period",no new distant metastasis was observed
same,Growth of tumors expressing WT1,malignant tumors; patient KB07-006,suppressed
same,Appearance of new metastatic lesion,"malignant tumors; patient KB07-006, 13 months after starting W10 peptide",no appearance of a new metastatic lesion
same,"RECIST, total sum of longest diameters of 10 metastatic target lesions","malignant tumors; patient KB07-006, CT on the 37th week",PD (the sum of the longest diameters of the target lesions increases by at least 20%)
same,"RECIST, total sum of longest diameters of 10 metastatic target lesions","malignant tumors; patient KB07-006, adenoid cystic carcinoma, up to 32 weeks",SD
same,PSA,"[1]; patient KB07-003, prostate cancer, stable for about half a year",less than 0.1
same,PSA after starting immunotherapy,"[1]; patient KB07-005, prostate cancer",around 0.04
same,Kd,HLA-A*0206 molecule,18.2 nM
